Test results from US10975037B2 (priority 2018, dated 2021).
Like-named read-outs stand apart in the source and are kept apart here.

Experiments:
[1] = target: human RORγt ligand binding domain (RORγt LBD) (Homo sapiens (Human), UniProt P51449); experiment: RORγt ThermoFluor® assay (thermal shift binding)
Description: This approach is applicable to a wide variety of systems, and rigorous in theoretical interpretation through quantitation of equilibrium binding constants (KD).
The shift in the melting point described as a ΔTm is proportional to the concentration and affinity of the ligand.
RORγt ThermoFluor® Assay Construct
Reference wells contained RORγt without compounds, and the assay conditions were as follows: • 0.065 mg/mL RORγt • 60 μM 1,8-ANS • 100 mM Hepes, pH 7.0 • 10 mM NaCl • 2.5 mM GSH • 0.002% Tween-20
Project compounds were arranged in a pre-dosed mother plate (Greiner Bio-one) wherein compounds are serially diluted in 100% DMSO by 1:2 from a high concentration of 10 mM over 12 columns within a series (column 12 is a reference well containing DMSO, no compound). The compounds were robotically dispensed directly into assay plates (1×=46 nL) using a Hummingbird capillary liquid handling instrument (Digilab). Following compound dispense, protein and dye in buffer was added to achieve the final assay volume of 3 μL, followed by 1 μL of silicone oil.

full-length human RORγt = full-length human RORγt (Homo sapiens (Human), UniProt P51449); experiment: RORγt (full-length human) reporter assay, conditions A or B, HEK293T cells; assay type: cell-based; settings: for IC50: RORγt (FL) Reporter Assay A or B, IC50, HEK293T cells; for inhibition at 2 µM: 2 μM compound concentration; for inhibition at 3 µM: 3 μM compound concentration (footnote *)
Sequence of full-length human RORγt (P51449 other isoform, or with tags, fused parts or gaps): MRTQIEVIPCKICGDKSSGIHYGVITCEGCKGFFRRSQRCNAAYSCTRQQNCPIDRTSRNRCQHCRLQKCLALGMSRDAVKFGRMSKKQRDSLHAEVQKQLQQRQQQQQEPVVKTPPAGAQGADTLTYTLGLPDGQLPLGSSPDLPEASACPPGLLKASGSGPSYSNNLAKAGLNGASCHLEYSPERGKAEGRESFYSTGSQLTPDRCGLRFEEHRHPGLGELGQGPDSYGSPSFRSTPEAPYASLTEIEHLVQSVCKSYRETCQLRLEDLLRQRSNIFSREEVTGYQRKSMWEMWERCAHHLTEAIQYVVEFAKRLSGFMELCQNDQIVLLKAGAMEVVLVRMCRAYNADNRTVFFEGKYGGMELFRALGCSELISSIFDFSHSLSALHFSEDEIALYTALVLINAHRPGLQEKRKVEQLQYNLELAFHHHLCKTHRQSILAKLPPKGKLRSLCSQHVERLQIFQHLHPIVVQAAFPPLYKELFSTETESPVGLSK
Description: RORγt (Full-Length Human) Reporter Assay:
(§1) HEK293T cells were plated at 35,000 per well in 96-well plate in medium of DMEM with 10% FBS. […] After overnight (16 to 20 hours) incubation, media were removed and cells were lysed with 50 L Glo Lysis Buffer (Promega) for 10-15 minutes followed by 10 minute incubation with 50 μL Dual Glo reagent (Promega) at room temperature. Firefly luciferase luminescence was measured using a BMG Pherastar plate reader. To each well, 50 μL Stop and Glo reagent was added and incubated for 10 minutes at room temperature. Renilla luminescence was measured using a BMG Pherastar plate reader. To calculate the effect of compounds on RORγt activity, firefly values were normalized against values of DMSO only and values of reference compound at saturating concentration, then further normalized against Renilla signals. IC50s were generated by plotting final Renilla normalized data against compound concentration and percent inhibition was calculated against DMSO control.
as §1, with “at 8750 cells” for “at 35,000”, “in 384-well” for “in 96-well”, “with 20” for “with 50”, “well, 20” for “well, 50”

[2] = read-out: ThermoFluor® Assay, Kd
[3] = HEK-293T, read-out: RORγt (FL) Reporter Assay A or B, % inhibition

Sequence of human RORγt ligand binding domain (RORγt LBD) (P51449 other isoform, or with tags, fused parts or gaps): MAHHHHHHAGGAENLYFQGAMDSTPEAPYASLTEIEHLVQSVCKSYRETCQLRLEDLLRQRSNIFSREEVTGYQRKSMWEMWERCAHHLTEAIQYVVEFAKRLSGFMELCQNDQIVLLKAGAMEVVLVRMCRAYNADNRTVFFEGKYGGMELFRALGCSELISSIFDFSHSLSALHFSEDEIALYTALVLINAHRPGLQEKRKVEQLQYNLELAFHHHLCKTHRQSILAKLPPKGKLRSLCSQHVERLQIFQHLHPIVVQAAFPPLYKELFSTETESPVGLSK

Row | IC50 (full-length human RORγt) [nM] | Kd [1, 2] [nM] | inhibition at 2 µM (full-length human RORγt; [3]) [%] | also measured | SMILES
1 | 8.7 |  |  | Kd ([1]; ThermoFluor® Assay, Kd): 1 nM; inhibition at […] (full-length human RORγt; HEK-293T, […] μM compound concentration (footnote ********), read-out: RORγt (FL) Reporter Assay A or B, % inhibition): 94% | CCn1nc(C(=O)NC[C@]2(O)CC[C@@H](S(C)(=O)=O)CC2)c(Cl)c1-c1ccc(C[C@H](C)C(F)(F)F)cc1OC(F)F (single isomer, unassigned) [Example 56, 4-Chloro-5-(2-(difluoromethoxy)-4-((S*)-3,3,3-trifluoro-2-methylpropyl)phenyl)-1-ethyl-N-(((1s,4R)-1-hydroxy-4-(methylsulfonyl)cyclohexyl)methyl)-1H-pyrazole-3-carboxamide]
2 | 78 | 13 | 96 |  | COc1cc(CC(C)C(F)(F)F)ccc1-c1c(Cl)c(C(=O)NC[C@H]2CC[C@H](S(C)(=O)=O)CC2)nn1CCO (stereo partly shown) [Example 200, 4-Chloro-1-(2-hydroxyethyl)-5-(2-methoxy-4-(3,3,3-trifluoro-2-methylpropyl)phenyl)-N-(((1r,4r)-4-(methylsulfonyl)cyclohexyl)methyl)-1H-pyrazole-3-carboxamide]
3 | 52 | 13 | 101 |  | CCn1nc(C(=O)NC[C@H]2CC[C@H](S(C)(=O)=O)CC2)c(Cl)c1-c1ccc(N[C@H](C)C(F)(F)F)cc1C [Example 184, 4-Chloro-1-ethyl-5-(2-methyl-4-(((R)-1,1,1-trifluoropropan-2-yl)amino)phenyl)-N-(((1r,4R)-4-(methylsulfonyl)cyclohexyl)methyl)-1H-pyrazole-3-carboxamide]
4 | 85 |  |  | Kd ([1]; ThermoFluor® Assay, Kd): 5.8 nM; inhibition at 3 µM (full-length human RORγt; [3]): 84% | CCn1nc(C(=O)NC[C@@]2(O)CC[C@H](S(C)(=O)=O)C[C@@H]2O)c(C)c1-c1ccc(C[C@@H](C)C(F)(F)F)cc1OC(F)F (stereo in doubt) [Example 141, 5-(2-(Difluoromethoxy)-4-((R*)-3,3,3-trifluoro-2-methylpropyl)phenyl)-N-(((1S*,2S*,4S*)-1,2-dihydroxy-4-(methylsulfonyl)cyclohexyl)methyl)-1-ethyl-4-methyl-1H-pyrazole-3-carboxamide]
5 | 140 | 33 | 100 |  | CCn1nc(C(=O)NC[C@H]2CC[C@H](S(C)(=O)=O)CC2)c(C(C)C)c1-c1ccc(N[C@H](C)C(F)(F)F)cc1OC [Example 131, 1-Ethyl-4-isopropyl-5-(2-methoxy-4-(((R)-1,1,1-trifluoropropan-2-yl)amino)phenyl)-N-(((1r,4R)-4-(methylsulfonyl)cyclohexyl)methyl)-1H-pyrazole-3-carboxamide]
6 | 2.3 | 10 |  | inhibition at […] (full-length human RORγt; HEK-293T, 0.33 μM compound concentration (footnote *****), read-out: RORγt (FL) Reporter Assay A or B, % inhibition): 68% | CCn1nc(C(=O)NC[C@]2(O)CC[C@@H](S(C)(=O)=O)CC2)c(C)c1-c1ccc(CCC(F)(F)F)cc1OC(F)F [Example 223, 5-(2-(Difluoromethoxy)-4-(3,3,3-trifluoropropyl)phenyl)-1-ethyl-N-(((1s,4s)-1-hydroxy-4-(methylsulfonyl)cyclohexyl)methyl)-4-methyl-1H-pyrazole-3-carboxamide]
7 | 2 | 0.16 |  | inhibition at 0.67 µM (full-length human RORγt; HEK-293T, 0.67 μM compound concentration (footnote ****), read-out: RORγt (FL) Reporter Assay A or B, % inhibition): 91% | COCCn1nc(C(=O)NC[C@H]2CC[C@H](S(C)(=O)=O)CC2)c(Cl)c1-c1ccc(CC(C)(C)C(F)(F)F)cc1OC(F)F [Example 148, 4-Chloro-5-(2-(difluoromethoxy)-4-(3,3,3-trifluoro-2,2-dimethylpropyl)phenyl)-1-(2-methoxyethyl)-N-(((1r,4r)-4-(methylsulfonyl)cyclohexyl)methyl)-1H-pyrazole-3-carboxamide]
8 | 3 | 0.14 |  | inhibition at 0.07 µM (full-length human RORγt; HEK-293T, 0.07 μM compound concentration (footnote *********), read-out: RORγt (FL) Reporter Assay A or B, % inhibition): 100% | CCn1nc(C(=O)NC[C@H]2CC[C@H](S(C)(=O)=O)CC2)c(C)c1-c1ccc(CC(C(F)(F)F)C(F)(F)F)cc1OC(F)F [Example 87, 5-(2-(Difluoromethoxy)-4-(3,3,3-trifluoro-2-(trifluoromethyl)propyl)phenyl)-1-ethyl-4-methyl-N-(((1r,4r)-4-(methylsulfonyl)cyclohexyl)methyl)-1H-pyrazole-3-carboxamide]
9 | 830 |  |  | Kd ([1]; ThermoFluor® Assay, Kd): 240 nM; inhibition at 6 µM (full-length human RORγt; HEK-293T, read-out: RORγt (FL) Reporter Assay A or B, % inhibition @ 6 μM, 6 μM compound concentration): 102% | CCn1nc(C(=O)NC[C@@H]2CC[C@H](S(C)(=O)=O)CO2)c(Cl)c1-c1ccc(N[C@H](C)C(F)(F)F)cc1OC (relative stereo) [Example 18, 4-Chloro-1-ethyl-5-(2-methoxy-4-(((R)-1,1,1-trifluoropropan-2-yl)amino)phenyl)-N-(((2S*,5S*)-5-(methylsulfonyl)tetrahydro-2H-pyran-2-yl)methyl)-1H-pyrazole-3-carboxamide]
10 | 61 | 9.9 | 100 |  | CCc1c(C(=O)NC[C@H]2CC[C@H](S(C)(=O)=O)CC2)nn(CC)c1-c1ccc(N[C@H](C)C(F)(F)F)cc1OC [Example 130, 1,4-Diethyl-5-(2-methoxy-4-(((R)-1,1,1-trifluoropropan-2-yl)amino)phenyl)-N-(((r,4R)-4-(methylsulfonyl)cyclohexyl)methyl)-1H-pyrazole-3-carboxamide]
11 | 2.4 |  | 103 |  | CCOC(=O)[C@]1(CNC(=O)c2nn(CC)c(-c3ccc(CC(C)(C)C(F)(F)F)cc3OC(F)F)c2Cl)CC[C@H](S(C)(=O)=O)CC1 [Example 118, Ethyl (1s*,4s*)-1-((4-chloro-5-(2-(difluoromethoxy)-4-(3,3,3-trifluoro-2,2-dimethylpropyl)phenyl)-1-ethyl-1H-pyrazole-3-carboxamido)methyl)-4-(methylsulfonyl)cyclohexane-1-carboxylate]
12 |  |  |  | inhibition at 3 µM (full-length human RORγt; [3]): 115% | CCn1nc(C(=O)NC[C@]2(O)CC[C@@H](S(C)(=O)=O)CC2)c(Cl)c1-c1ccc(C(C)(O)CCC(F)(F)F)cc1OC(F)F (stereo partly shown) [Example 101, 4-Chloro-5-(2-(difluoromethoxy)-4-(5,5,5-trifluoro-2-hydroxypentan-2-yl)phenyl)-1-ethyl-N-(((1s,4s)-1-hydroxy-4-(methylsulfonyl)cyclohexyl)methyl)-1H-pyrazole-3-carboxamide]
13 |  |  | 77 |  | CCn1nc(C(=O)NC[C@H]2CC[C@H](S(C)(=O)=O)CC2)c(Cl)c1-c1ccc(OC[C@@H]2CC2(F)F)cc1OC (single isomer, unassigned) [Example 210, 4-Chloro-5-(4-(((S*)-2,2-difluorocyclopropyl)methoxy)-2-methoxyphenyl)-1-ethyl-N-(((1r,4R)-4-(methylsulfonyl)cyclohexyl)methyl)-1H-pyrazole-3-carboxamide]
14 |  |  | 88 |  | CCn1nc(C(=O)NC[C@]2(O)CC[C@@H](S(C)(=O)=O)CC2)c(Cl)c1-c1ccc(CC(C)(C)C(F)(F)F)cc1OC [Example 45, 4-Chloro-1-ethyl-N-(((1s,4s)-1-hydroxy-4-(methylsulfonyl)cyclohexyl)methyl)-5-(2-methoxy-4-(3,3,3-trifluoro-2,2-dimethylpropyl)phenyl)-1H-pyrazole-3-carboxamide]
15 | > 2000 |  | 5 |  | CCn1nc(C(=O)NC[C@]2(O)CC[C@@H](S(C)(=O)=O)CC2)c(Cl)c1-c1ccc(CCC(F)(F)F)cc1C(F)(F)F [Example 170, 4-Chloro-1-ethyl-N-(((1s,4s)-1-hydroxy-4-(methylsulfonyl)cyclohexyl)methyl)-5-(2-(trifluoromethyl)-4-(3,3,3-trifluoropropyl)phenyl)-1H-pyrazole-3-carboxamide]
